The record followed here is US5329012A, “Bis(acyloxmethyl)imidazole compounds” (The Research Foundation of State University of New York, priority 1987, dated 1994).

Like-named read-outs stand apart in the source and are kept apart here.

The series deals with lymphocytic leukemia P-388. The experiment in a line: P-388 lymphocytic leukemia test in mice (NCI Protocol 1.200). It counts as in vivo, CDF1 female mice. To be noted: for Tox.Day Surv. (survivors/animals tested): day 5; for response vs control in vivo at 12.5 mg/kg / response vs control in vivo at 25 mg/kg / response vs control in vivo at 50 mg/kg / response vs control in vivo at 100 mg/kg / response vs control in vivo at 200 mg/kg / response vs control in vivo at 400 mg/kg: Mus musculus, P388, 120 h, read-out: % T/C (mean survival time). As to the method: Various bis(acyloxymethyl)imidazole derivatives prepared in accord with Examples I-XVIII and designated Samples A-J, were tested for anti-tumor activity in vivo using the lymphocytic leukemia P-388 test procedure in mice with Samples A and B representing controls. The test system was that employed by the National Cancer Institute (NCI) for the preliminary screening of anti-tumor agents, according to Protocol 1.200 (Cancer Chemo. Reports Part 3, Vol. 3, No. 2, page 9; 1972). In the study ascitic fluid containing 6×10^6 cells was implanted in the peritoneal cavity of CDF1 female mice. Each imidazole was given in a single injection, at four to six different dose levels (5-6 mice/dose level) daily for five (5) days beginning 24 hours after tumor innoculation. The control animals received saline. Test criteria was in accord with NCI protocol as follows: toxicity day evaluations were carried out on day 5 (number of survivors/number of animals tested); % T/C data was calculated through mean survival time [% T/C=(MST treated/MST control)x100, where MST=mean survival time]; BWD refers to the body weight difference (grams) of test animals compared to control animals; KE refers to the log of the tumor cell population at the end of treatment relative to tumor cell population before treatment.
Table I sets out the identification of the compounds corresponding to the samples used in this and further Examples. Table II sets out the results of the P-388 tests.

Setting [1] is: 12.5 mg/kg/inj, daily for 5 days.
[2] abbreviates: 100 mg/kg/inj, daily for 5 days.
Where [3] appears, read: 200 mg/kg/inj, daily for 5 days.
Where [4] appears, read: 400 mg/kg/inj, daily for 5 days.

For `CNC(=O)OCc1nc(-c2ccccc2)n(C)c1COC(=O)NC` [G, 1-methyl-2-phenyl-4,5-bis-(N-methylcarbonyloxymethyl)imidazole], the response vs control in vivo at 12.5 mg/kg turned out to be 98%, the response vs control in vivo at 25 mg/kg amounted to 107%, the response vs control in vivo at 50 mg/kg worked out at 112% and the response vs control in vivo at 100 mg/kg stood at 116%. In addition, the response vs control in vivo at 200 mg/kg is 119%. Under setting [1], the “BWD (body weight difference vs control)” value is listed as -0.2 g, the “KE (log tumor cell population end vs before treatment)” value is -1.56 and the “Tox.Day Surv. (survivors/animals tested)” value is on record as 5/5. For the same molecule, for the setting “25 mg/kg/inj, daily for 5 days”, the “BWD (body weight difference vs control)” value was 0.0 g, the “KE (log tumor cell population end vs before treatment)” value was -1.44 and the “Tox.Day Surv. (survivors/animals tested)” value was 5/5. For the setting “50 mg/kg/inj, daily for 5 days”, the “BWD (body weight difference vs control)” value was -0.8 g, the “KE (log tumor cell population end vs before treatment)” value is recorded as -1.38 and the “Tox.Day Surv. (survivors/animals tested)” value was 5/5. Under setting [2], the “BWD (body weight difference vs control)” value is -1.0 g, the “KE (log tumor cell population end vs before treatment)” value was -1.31 and the “Tox.Day Surv. (survivors/animals tested)” value is listed as 5/5. Under setting [3], the “BWD (body weight difference vs control)” value is given as -2.2 g, the “KE (log tumor cell population end vs before treatment)” value is recorded as -1.28 and the “Tox.Day Surv. (survivors/animals tested)” value is 5/5.

On to `CNC(=O)OCc1nc(SC)n(-c2ccccc2)c1COC(=O)NC` [C, 1-phenyl-2-methylthio-4,5-bis-(N-methylcarbonyloxymethyl)imidazole], for which the response vs control in vivo at 50 mg/kg stood at 141%, the response vs control in vivo at 100 mg/kg came out at 133% and the response vs control in vivo at 200 mg/kg was found to be 156%. For the same molecule, for the setting “50 mg/kg/inj, daily for 5 days”, the “BWD (body weight difference vs control)” value is listed as -1.4 g, the “KE (log tumor cell population end vs before treatment)” value turned out to be 0.60 and the “Tox.Day Surv. (survivors/animals tested)” value is 5/5. In addition, under setting [2], the “BWD (body weight difference vs control)” value is -1.6 g, the “KE (log tumor cell population end vs before treatment)” value is given as 0.17 and the “Tox.Day Surv. (survivors/animals tested)” value is on record as 5/5. Also, under setting [3], the “BWD (body weight difference vs control)” value is on record as -3.0 g, the “KE (log tumor cell population end vs before treatment)” value worked out at 1.46 and the “Tox.Day Surv. (survivors/animals tested)” value is given as 5/5. Besides, under setting [4], the “BWD (body weight difference vs control)” value is reported as -5.2 g, the “KE (log tumor cell population end vs before treatment)” value is recorded as “toxic” and the “Tox.Day Surv. (survivors/animals tested)” value is 4/5.

As for `CNC(=O)OCc1ncn(-c2ccccc2)c1COC(=O)NC` [A, 1-phenyl-4,5-bis(N-methylcarbonyloxymethyl)imidazole, reference compound], the response vs control in vivo at 12.5 mg/kg was found to be 99%, the response vs control in vivo at 25 mg/kg is 95%, the response vs control in vivo at 50 mg/kg came out at 101% and the response vs control in vivo at 100 mg/kg was found to be 101%. Moreover, the response vs control in vivo at 200 mg/kg was determined as 99%. Under setting [1], the “BWD (body weight difference vs control)” value is listed as -0.4 g, the “KE (log tumor cell population end vs before treatment)” value is given as -1.55 and the “Tox.Day Surv. (survivors/animals tested)” value is recorded as 5/5. Further, for the setting “25 mg/kg/inj, daily for 5 days”, the “BWD (body weight difference vs control)” value came out at 0.2 g, the “KE (log tumor cell population end vs before treatment)” value is -1.61 and the “Tox.Day Surv. (survivors/animals tested)” value is recorded as 5/5. Under “50 mg/kg/inj, daily for 5 days”, the “BWD (body weight difference vs control)” value is on record as -0.8 g, the “KE (log tumor cell population end vs before treatment)” value is on record as -1.52 and the “Tox.Day Surv. (survivors/animals tested)” value is given as 5/5. Under setting [2], the “BWD (body weight difference vs control)” value is -0.4 g, the “KE (log tumor cell population end vs before treatment)” value is recorded as -1.52 and the “Tox.Day Surv. (survivors/animals tested)” value is given as 5/5. For the same molecule, under setting [3], the “BWD (body weight difference vs control)” value is -1.2 g, the “KE (log tumor cell population end vs before treatment)” value was -1.55 and the “Tox.Day Surv. (survivors/animals tested)” value is given as 5/5.

`CSc1nc(COC(=O)NC(C)C)c(COC(=O)NC(C)C)n1-c1ccccc1` [D, 1-phenyl-2-methylthio-4,5-bis-[N-(2-propyl)carbonyloxymethyl]imidazole]: under setting [1], the “BWD (body weight difference vs control)” value is given as -0.2 g, the “KE (log tumor cell population end vs before treatment)” value is reported as -1.42 and the response vs control in vivo at 12.5 mg/kg was determined as 111%. Moreover, where the note is “25 mg/kg/inj, daily for 5 days”, the “BWD (body weight difference vs control)” value is given as 0.6 g and the response vs control in vivo at 25 mg/kg turned out to be 101%. Moreover, under “50 mg/kg/inj, daily for 5 days”, the “BWD (body weight difference vs control)” value was 0.3 g, the “KE (log tumor cell population end vs before treatment)” value was -1.64 and the response vs control in vivo at 50 mg/kg was determined as 95%. In addition, under setting [2], the “BWD (body weight difference vs control)” value was -2.0 g, the “KE (log tumor cell population end vs before treatment)” value is given as -1.62 and the response vs control in vivo at 100 mg/kg worked out at 97%. Besides, under setting [3], the “BWD (body weight difference vs control)” value is -2.8 g, the “KE (log tumor cell population end vs before treatment)” value is reported as -1.64 and the response vs control in vivo at 200 mg/kg was found to be 90%. Also, under setting [4], the “BWD (body weight difference vs control)” value is recorded as -4.8 g, the “KE (log tumor cell population end vs before treatment)” value is -1.52 and the response vs control in vivo at 400 mg/kg came out at 100%.

As to `CNC(=O)OCc1nc(SC)n(Cc2ccccc2)c1COC(=O)NC` [E, 1-benzyl-2-methylthio-4,5-bis-(N-methylcarbonyloxymethyl)imidazole], the response vs control in vivo at 50 mg/kg turned out to be 116%, the response vs control in vivo at 100 mg/kg stood at 116%, the response vs control in vivo at 200 mg/kg was found to be 129% and the response vs control in vivo at 400 mg/kg amounted to 127%. Besides, for the setting “50 mg/kg/inj, daily for 5 days”, the “BWD (body weight difference vs control)” value came out at 0.9 g, the “KE (log tumor cell population end vs before treatment)” value is on record as -1.19 and the “Tox.Day Surv. (survivors/animals tested)” value is reported as 6/6. Moreover, under setting [2], the “BWD (body weight difference vs control)” value is recorded as 0.4 g, the “KE (log tumor cell population end vs before treatment)” value was -1.19 and the “Tox.Day Surv. (survivors/animals tested)” value was 6/6. Moreover, under setting [3], the “BWD (body weight difference vs control)” value was -0.4 g, the “KE (log tumor cell population end vs before treatment)” value is -0.44 and the “Tox.Day Surv. (survivors/animals tested)” value is recorded as 6/6. Under setting [4], the “BWD (body weight difference vs control)” value was -1.2 g, the “KE (log tumor cell population end vs before treatment)” value is on record as -0.71 and the “Tox.Day Surv. (survivors/animals tested)” value was 6/6.

In the case of `CC(C)NC(=O)OCc1ncn(-c2ccccc2)c1COC(=O)NC(C)C` [B, 1-phenyl-4,5-bis[N-(2-propyl)carbonyloxymethyl]-imidazole, reference compound], under setting [1], the “BWD (body weight difference vs control)” value is listed as -0.4 g, the “KE (log tumor cell population end vs before treatment)” value is listed as -1.53 and the response vs control in vivo at 12.5 mg/kg is 103%. For the same molecule, for the setting “25 mg/kg/inj, daily for 5 days”, the “BWD (body weight difference vs control)” value was -0.1 g, the “KE (log tumor cell population end vs before treatment)” value is reported as -1.53 and the response vs control in vivo at 25 mg/kg was found to be 103%. For the same molecule, for the setting “50 mg/kg/inj, daily for 5 days”, the “BWD (body weight difference vs control)” value worked out at 0.8 g, the “KE (log tumor cell population end vs before treatment)” value is -1.62 and the response vs control in vivo at 50 mg/kg was 97%. Further, under setting [2], the “BWD (body weight difference vs control)” value is listed as 0.6 g, the “KE (log tumor cell population end vs before treatment)” value was -1.69 and the response vs control in vivo at 100 mg/kg was 91%. Besides, under setting [3], the “BWD (body weight difference vs control)” value amounted to 0.2 g, the “KE (log tumor cell population end vs before treatment)” value is reported as “toxic” and the response vs control in vivo at 200 mg/kg was found to be 90%. Under setting [4], the “BWD (body weight difference vs control)” value is -2.3 g, the “KE (log tumor cell population end vs before treatment)” value was “toxic” and the response vs control in vivo at 400 mg/kg came out at 90%.
